According to article PMC7079008, “Compactness of Protein Folds Alters Disulfide‐Bond Reducibility by Three Orders of Magnitude: A Comprehensive Kinetic Case Study on the Reduction of Differently Sized Tryptophan Cage Model Proteins” (Chembiochem, 2019):
Where a SMILES comes first, the peptide text is derived from it. Bridges are numbered along the chain shown (N, C = ends).

Test: SS bond reduction by TCEP monitored by 1H NMR
Type: physicochemical
Conditions: 1.7 mM protein, twofold excess of TCEP, 15 °C, pH 7; for TCEP: Elapsed time to steady state / TCEP: k1 / TCEP: t1/2 of reduction: 1H NMR; for TCEP: Conversion rate: 1H NMR Trp Hε1 integrals; for TCEP: k1: parameter estimation; for TCEP: t1/2 of reduction: calculated from k1 (Eq. 12)
Description: The SS bond reduction by TCEP is a bimolecular nucleophilic substitution (SN2) reaction.37 Thus, both the concentration of the oxidized form of the protein [_SS] and that of the RA contribute to the rate of the reduction. In an ideal case, we should consider only nucleophilic attack of the RA (k 1), but, as we explained previously, in practice, we also have to take into account back oxidation (k 2), which takes place simultaneously, and, in some cases, depending on the size and shape of the protein, precipitation (k 3; Figure 5). The mechanism of reduction, therefore, can be described by Equations (2), (3), (4):(2) SS+RAred→k12SH+RAox (3) 2SH+O2→k2SS (4) 2SH→k3SSprecipitated
By fitting this model to the concentration–time functions determined by means of NMR spectroscopy, k 1, k 2, and k 3 can be determined, and half‐lives can be calculated. We focused on the determination of the reduction rate constants k 1; therefore, sampling was more frequent in the reduction phase (stage I; Figure 5 B). Based on parameter estimation (see the Experimental Section), k 2 and k 3 are very often either negligibly small, or, due to a lack of sufficient data, cannot be confidently estimated. Obtaining key kinetic parameters allowed us to describe and compare the reduction kinetics of the SS‐containing miniproteins under various experimental conditions. Some protocols reported in the literature apply extreme conditions, such as high temperature (e.g., 50–80 °C), to obtain short reduction times; this is clearly unsuitable for maintaining the integrity of the protein, or >20‐fold molar excess of reagent. By performing the reduction of E19_SS (0.8 mM) under such conditions (60 °C with 18‐fold TCEP excess), the reaction seemed almost instantaneous (t 1/2<5 min), but the sample became opalescent and side reactions (e.g., precipitation) were instantly detected. Similarly to most globular proteins, the conformational ensemble of E19_2SH at 60 °C is distinctly different from that of 15 °C; thus presenting many more unfolded states. The folded fraction of E19_2SH is 64 % at 15 °C, whereas it is 41 % at 60 °C, according to FUV‐ECD analysis. Instead of intramolecular reoxidation, undesirable intermolecular reoxidation might occur between particles. […] In principle, the reduction rate can be enhanced at lower T by increasing the TCEP molar ratio (15–20‐fold molar excess); however, this also triggers obscure unwanted processes (Figure S5). Experiments were repeated at different temperatures (15, 25, and 37 °C) with 0.8 mM protein and 18‐fold excess of TCEP (Table 2 and Figure S6). The Arrhenius equation allows the activation energy (E a) of the redox reaction to be derived, resulting in a value of about 44.3 kJ mol^−1. For comparison, the activation energy of thiol–disulfide exchange between methylthiolate and oxidized DTT was calculated to be 62 kJ mol^−1.76 Both FUV‐ECD and NMR spectroscopy derived structural information support the high conformational similarity between E19_SS and E19_2SH; therefore, E a is likely to be used for the redox reaction, rather than for the conformational switch between the two conformational states (Table 1). […] Additional experiments were performed to investigate the effect of the protein/RA ratio as a practical perspective (Figure S7). The above‐described NMR spectroscopy methodology provides high‐resolution information about the reduction mechanism, relative to that of the more rapid NUV‐ECD approach, and thus, details of the reduction of all four −SS− protein models were obtained through NMR spectroscopy.
Monitoring reduction kinetics: Peptide samples were prepared between 0.8 and 1.8 mM in 50 mM NaH2PO4–Na2HPO4 buffer (600 μL, pH 6.95), with 10 % D2O. A 0.1 M solution of NaOH was used to set the pH to 7. […]

Row | TCEP: Elapsed time to steady state | TCEP: Conversion rate [%] | TCEP: t1/2 of reduction [min] | Structure (SMILES) | TCEP: k1 [M⁻¹ s⁻¹]
1 | <5 min | 100 | – | CC[C@H](C)[C@@H]1NC(=O)[C@H](Cc2ccc(O)cc2)NC(=O)[C@H](CC(C)C)NC(=O)[C@H](CCCNC(=N)N)NC(=O)[C@H](C(C)C)NC(=O)[C@@H](N)CSSC[C@@H](C(=O)O)NC(=O)[C@@H]2CCCN2C(=O)[C@@H]2CCCN2C(=O)[C@@H]2CCCN2C(=O)[C@H](CCCNC(=N)N)NC(=O)CNC(=O)[C@H](CO)NC(=O)[C@H](CO)NC(=O)[C@@H]2CCCN2C(=O)CNC(=O)CNC(=O)[C@H](CC(=O)O)NC(=O)[C@H](CCCCN)NC(=O)[C@H](CC(C)C)NC(=O)[C@H](Cc2c[nH]c3ccccc23)NC(=O)[C@H](CCC(N)=O)NC1=O [E2_SS] (H-CVRLYIQWLKDGGPSSGRPPPC-OH; disulfide 1-22) | –
2 | ≈5–6 h | 94 | 67 | CC[C@H](C)[C@@H]1NC(=O)[C@H](Cc2ccc(O)cc2)NC(=O)[C@H](CC(C)C)NC(=O)[C@H](CCCNC(=N)N)NC(=O)[C@H](C(C)C)NC(=O)[C@@H](NC(=O)[C@H](CCC(=O)O)NC(=O)[C@H](CCC(=O)O)NC(=O)[C@H](CCC(=O)O)NC(=O)[C@H](CCSC)NC(=O)[C@H](CCC(N)=O)NC(=O)[C@H](CCCCN)NC(=O)[C@H](CO)NC(=O)[C@H](CC(C)C)NC(=O)[C@@H](N)CC(=O)O)CSSC[C@@H](C(=O)O)NC(=O)[C@@H]2CCCN2C(=O)[C@@H]2CCCN2C(=O)[C@@H]2CCCN2C(=O)[C@H](CCCNC(=N)N)NC(=O)CNC(=O)[C@H](CO)NC(=O)[C@H](CO)NC(=O)[C@@H]2CCCN2C(=O)CNC(=O)CNC(=O)[C@H](CC(=O)O)NC(=O)[C@H](CCCCN)NC(=O)[C@H](CC(C)C)NC(=O)[C@H](Cc2c[nH]c3ccccc23)NC(=O)[C@H](CCC(N)=O)NC1=O [E11_SS] (H-DLSKQMEEECVRLYIQWLKDGGPSSGRPPPC-OH; disulfide 10-31) | 0.0613
3 | ≈1 h | 93 | 14 | CC[C@H](C)[C@@H]1NC(=O)[C@H](Cc2ccc(O)cc2)NC(=O)[C@H](CC(C)C)NC(=O)[C@H](CCCNC(=N)N)NC(=O)[C@H](C(C)C)NC(=O)[C@@H](NC(=O)[C@H](CCC(=O)O)NC(=O)[C@H](CCC(=O)O)NC(=O)[C@@H](N)CCC(=O)O)CSSC[C@@H](C(=O)O)NC(=O)[C@@H]2CCCN2C(=O)[C@@H]2CCCN2C(=O)[C@@H]2CCCN2C(=O)[C@H](CCCNC(=N)N)NC(=O)CNC(=O)[C@H](CO)NC(=O)[C@H](CO)NC(=O)[C@@H]2CCCN2C(=O)CNC(=O)CNC(=O)[C@H](CC(=O)O)NC(=O)[C@H](CCCCN)NC(=O)[C@H](CC(C)C)NC(=O)[C@H](Cc2c[nH]c3ccccc23)NC(=O)[C@H](CCC(N)=O)NC1=O [E5_SS] (H-EEECVRLYIQWLKDGGPSSGRPPPC-OH; disulfide 4-25) | 0.308
